Here are results for two compounds from patent US20210401827A1 (priority 2018, published 2021).

Where two headings read alike, the source gives them in different places.

The conditions of data set [1]: human, in vivo.
For data set [2] the following is noted: in vivo; cited from earlier work.
For data set [3] the following is noted: human, in vivo. The source holds these as a separate data set.

`O=C1CC[C@@]2(O)[C@H]3Cc4ccc(O)c5c4[C@@]2(CCN3CC2CC2)[C@H]1O5` [Naltrexone, 17-(cyclopropylmethyl)-4,5α-epoxy-3,14-dihydroxymorphinan-6-one] showed a λz in data set [1] of 0.361 h⁻¹. In data set [1] (im, 2 mg), this compound came in with an AUCextrap of 1.01% and a Cmax/Dose of 2.27 ng/mL/mg.
`C=C1CC[C@@]2(O)[C@H]3Cc4ccc(O)c5c4[C@@]2(CCN3CC2CC2)[C@H]1O5` [Nalmefene, 17-cyclopropylmethyl-4,5α-epoxy-6-methylenemorphinan-3,14-diol]: in data set [2], the “adverse events with an incidence less than 1%” value was “bradycardia, arrhythmia, diarrhea, dry mouth, somnolence, depression, agitation, nervousness, tremor, confusion, withdrawal syndrome, myoclonus, pharyngitis, pruritus, and urinary retention”; the “common adverse reactions with an incidence greater than 1%” value was “nausea, vomiting, tachycardia, hypertension, postoperative pain, fever, dizziness, headache, chills, hypotension, and vasodilation”. For the same compound, in data set [3], the Lambda z turned out to be 0.094 h⁻¹. In data set [3] (im, 1.5 mg), this compound gave an AUCextrap of 22.6% and a Cmax/D of 1.12 ng/mL/mg.
